Measured values as given in patent US20230389548A1, “MIXTURES OF PYRIMIDINES AS HERBICIDAL COMPOSITIONS” (SYNGENTA CROP PROTECTION AG, priority 2020, published 2023).

Legend:
Experiment in all cases: Post-emergence glasshouse spray test, visual percentage phytotoxicity after 13 days
Format in all cases: in vivo
[1] = tested on: Ipomoea hederacea (IPOHE); details: B1
Procedure: (§1) Seeds of Setaria faberi (SETFA), Echinochloa crus-galli (ECHCG), Digitaria sanguinalis (DIGSA), Lolium perenne (LOLPE), Alopecurus myosuroides (ALOMY), Chenopodium album (CHEAL), Ipomoea hederacea (IPOHE), Stellaria media (STEME), Abutilon threophrasti (ABUTH), Amaranthus retroflexus (AMARE) were sown in standard sterilised soil in pots. After cultivation for 8 days under controlled conditions in a glasshouse (at 24/19° C., day/night; 16 hours light; no humidity control), the plants were sprayed at 500 l/Ha with an aqueous spray solution derived from the formulation of the technical active ingredients in a small amount of acetone and a solvent and emulsifier mixture referred to as IF50 (11.12% Emulsogen EL360™+44.44% N-methylpyrrolidone+44.44% Dowanol DPM glycol ether), to create a 50 g/l solution which was then diluted using 0.2% Genapol XO80 (CAS Number: 9043-30-5) as diluent to give the desired final dose of test compound.
(§2) Where active ingredients were applied as mixtures, aqueous spray solutions were prepared as above, containing both active ingredients.
(§3) The test plants were then grown under controlled conditions in a glasshouse (at 24/18° C., day/night; 15 hours light; 50% humidity) and watered twice daily. After 13 days, the test was evaluated visually for percentage phytotoxicity to the plants (where 100=total damage to plant; 0=no damage to plant; and NC=not captured) when compared to control untreated plants. Two to four replicates were applied for each treatment in a randomised block test design.
(§4) 22., E=X+Y−(X*Y/100), where
(§5) X=average percent phytotoxicity of herbicide A when applied at a certain rate Y=average percent phytotoxicity using herbicide B when applied at a certain rate E=the expected effect of the mixture of herbicides A and B as calculated from the Colby formula.

Stellaria media (STEME) = details: for STEME percentage phytotoxicity: B1; for Observed phytotoxicity STEME: B2.1.4
Procedure: as §1, §2, §3, §4, §5

[2] = tested on: Amaranthus retroflexus (AMARE); details: for AMARE percentage phytotoxicity: B1
Procedure: as §1, §2, §3, §4, §5

[3] = tested on: Digitaria sanguinalis (DIGSA); details: B1
Procedure: as §1, §2, §3, §4, §5

[4] = tested on: Chenopodium album (CHEAL); details: for CHEAL percentage phytotoxicity: B1; for Observed phytotoxicity CHEAL: B2.1.6
Procedure: as §1, §2, §3, §4, §5

Lolium perenne (LOLPE) = details: for LOLPE percentage phytotoxicity: B1; for Observed phytotoxicity LOLPE: B2.1.1
Procedure: as §1, §2, §3, §4, §5

Setaria faberi (SETFA) = details: for SETFA percentage phytotoxicity: B1
Procedure: as §1, §2, §3, §4, §5

[5] = tested on: Echinochloa crus-galli (ECHCG); details: for ECHCG percentage phytotoxicity: B1; for Observed phytotoxicity ECHCG: B2.1.2
Procedure: as §1, §2, §3, §4, §5

[6] = tested on: Abutilon threophrasti (ABUTH); details: for ABUTH percentage phytotoxicity: B1; for Observed phytotoxicity ABUTH: B2.1.7
Procedure: as §1, §2, §3, §4, §5

Which results are given for `CN1C[C@H](c2cccc(C(F)(F)F)c2)[C@@H](C(=O)Nc2ccccc2F)C1=O` [B-III]?
IPOHE percentage phytotoxicity ([1]; 3.125 g/ha post-emergence): 9%; IPOHE percentage phytotoxicity ([1]; 6.25 g/ha post-emergence): 11%; IPOHE percentage phytotoxicity ([1]; 12.5 g/ha post-emergence): 15%; IPOHE percentage phytotoxicity ([1]; 25 g/ha post-emergence): 24%; IPOHE percentage phytotoxicity ([1]; 50 g/ha post-emergence): 28%; STEME percentage phytotoxicity (Stellaria media (STEME); 3.125 g/ha post-emergence): 13%; STEME percentage phytotoxicity (Stellaria media (STEME); 6.25 g/ha post-emergence): 21%; STEME percentage phytotoxicity (Stellaria media (STEME); 12.5 g/ha post-emergence): 14%; STEME percentage phytotoxicity (Stellaria media (STEME); 25 g/ha post-emergence): 46%; STEME percentage phytotoxicity (Stellaria media (STEME); 50 g/ha post-emergence): 71%; Observed phytotoxicity STEME (Stellaria media (STEME); 6.25 g/ha post-emergence): 21%; Observed phytotoxicity STEME (Stellaria media (STEME); 12.5 g/ha post-emergence): 14%; AMARE percentage phytotoxicity ([2]; 3.125 g/ha post-emergence): 4%; AMARE percentage phytotoxicity ([2]; 6.25 g/ha post-emergence): 6%; AMARE percentage phytotoxicity ([2]; 12.5 g/ha post-emergence): 10%; AMARE percentage phytotoxicity ([2]; 25 g/ha post-emergence): 21%; AMARE percentage phytotoxicity ([2]; 50 g/ha post-emergence): 31%; Observed phytotoxicity AMARE ([2]; B2.1.5, 6.25 g/ha post-emergence): 6%; DIGSA percentage phytotoxicity ([3]; 3.125 g/ha post-emergence): 72%; DIGSA percentage phytotoxicity ([3]; 6.25 g/ha post-emergence): 74%; DIGSA percentage phytotoxicity ([3]; 12.5 g/ha post-emergence): 78%; DIGSA percentage phytotoxicity ([3]; 25 g/ha post-emergence): 79%; DIGSA percentage phytotoxicity ([3]; 50 g/ha post-emergence): 80%; CHEAL percentage phytotoxicity ([4]; 3.125 g/ha post-emergence): 6%; CHEAL percentage phytotoxicity ([4]; 6.25 g/ha post-emergence): 10%; CHEAL percentage phytotoxicity ([4]; 12.5 g/ha post-emergence): 14%; CHEAL percentage phytotoxicity ([4]; 25 g/ha post-emergence): 44%; CHEAL percentage phytotoxicity ([4]; 50 g/ha post-emergence): 56%; Observed phytotoxicity CHEAL ([4]; 6.25 g/ha post-emergence): 10%; Observed phytotoxicity CHEAL ([4]; 12.5 g/ha post-emergence): 14%; LOLPE percentage phytotoxicity (Lolium perenne (LOLPE); 3.125 g/ha post-emergence): 30%; LOLPE percentage phytotoxicity (Lolium perenne (LOLPE); 6.25 g/ha post-emergence): 43%; LOLPE percentage phytotoxicity (Lolium perenne (LOLPE); 12.5 g/ha post-emergence): 55%; LOLPE percentage phytotoxicity (Lolium perenne (LOLPE); 25 g/ha post-emergence): 70%; LOLPE percentage phytotoxicity (Lolium perenne (LOLPE); 50 g/ha post-emergence): 75%; Observed phytotoxicity LOLPE (Lolium perenne (LOLPE); 6.25 g/ha post-emergence): 43%; Observed phytotoxicity LOLPE (Lolium perenne (LOLPE); 12.5 g/ha post-emergence): 55%; SETFA percentage phytotoxicity (Setaria faberi (SETFA); 3.125 g/ha post-emergence): 66%; SETFA percentage phytotoxicity (Setaria faberi (SETFA); 6.25 g/ha post-emergence): 68%; SETFA percentage phytotoxicity (Setaria faberi (SETFA); 12.5 g/ha post-emergence): 70%; SETFA percentage phytotoxicity (Setaria faberi (SETFA); 25 g/ha post-emergence): 74%; SETFA percentage phytotoxicity (Setaria faberi (SETFA); 50 g/ha post-emergence): 73%; Observed phytotoxicity SETFA (Setaria faberi (SETFA); B2.1.3, 25 g/ha post-emergence): 74%; ECHCG percentage phytotoxicity ([5]; 3.125 g/ha post-emergence): 70%; ECHCG percentage phytotoxicity ([5]; 6.25 g/ha post-emergence): 70%; ECHCG percentage phytotoxicity ([5]; 12.5 g/ha post-emergence): 73%; ECHCG percentage phytotoxicity ([5]; 25 g/ha post-emergence): 73%; ECHCG percentage phytotoxicity ([5]; 50 g/ha post-emergence): 75%; Observed phytotoxicity ECHCG ([5]; 12.5 g/ha post-emergence): 73%; Observed phytotoxicity ECHCG ([5]; 50 g/ha post-emergence): 75%; ABUTH percentage phytotoxicity ([6]; 3.125 g/ha post-emergence): 10%; ABUTH percentage phytotoxicity ([6]; 6.25 g/ha post-emergence): 4%; ABUTH percentage phytotoxicity ([6]; 12.5 g/ha post-emergence): 3%; ABUTH percentage phytotoxicity ([6]; 25 g/ha post-emergence): 19%; ABUTH percentage phytotoxicity ([6]; 50 g/ha post-emergence): 18%; Observed phytotoxicity ABUTH ([6]; 6.25 g/ha post-emergence): 4%; Observed phytotoxicity ABUTH ([6]; 12.5 g/ha post-emergence): 3%; Observed phytotoxicity ABUTH ([6]; 25 g/ha post-emergence): 19%; Observed phytotoxicity ABUTH ([6]; 50 g/ha post-emergence): 18%
